Laboratory results as given in patent US20080293916A1, “Hla-Binding Peptide, and Dna Fragment and Recombinant Vector Coding for Said Hla-Binding Peptide” (NEC CORPORATION, priority 2004, published 2008).
Like-named read-outs stand apart in the source and are kept apart here. Ends that are not written are not given here.

Assays:
[1] = molecular target: HLA-A2 molecule, product of the HLA-A*0201 gene (Homo sapiens, UniProt P04439, D140Y/D185E/D98H/E176V/E277Q/G131W/G231S/I119V/I121R/I166T/I218V/L300P/L318F/N151K/N90K/P208A/P217A/Q86G/Q94H/R138H/R169H/T345S); assay: Experiment of binding peptide to HLA-A2 molecule (JY cells, flow cytometer)
Method: (§1) <Experiment of Binding Peptide to HLA-A2 Molecule>
(§2) JY cells were first exposed to acidic conditions at a pH of 3.8 for 30 seconds, thus dissociating and removing a light chain β2m and an endogenous peptide, which were noncovalently associated with the HLA-A*0201 molecule. After neutralization, a reassociation experiment was carried out.
(§3) The above-mentioned JY cells and the purified β2m were added to stepped dilutions of peptide for which the binding ability would be measured, and incubation was carried out on ice for 4 hours. HLA-A*0201 molecules that had reassociated up to this point were stained using the associating type specific fluorescently-labeled monoclonal antibody BB7.2.
(§4) Subsequently, the amount of fluorescence per cell was measured using a flow cytometer and a dissociation constant Kd value in molar concentration was calculated by a published method (Udaka et al., Immunogenetics, 51, 816-828, 2000).

[2] = tested on: human HLA-A type molecule; assay: Binding experiment, result stated in words for HLA-A type molecule
Method: <Experiment of Binding Peptide to HLA-A24 Molecule>
The ability of a peptide to bind to an HLA-A24 molecule, which is a product of the HLA-A*2402 gene, was measured using C1R-A24 cells expressing the HLA-A24 molecule (cells prepared by Professor Masafumi Takiguchi, Kumamoto University being supplied with permission by Assistant Professor Masaki Yasukawa, Ehime University).
C1R-A24 cells were first exposed to acidic conditions at a pH of 3.3 for 30 seconds, thus dissociating and removing a light chain β2m, which is associated with HLA class I molecules in common, and an endogenous peptide originally bound to the HLA-A*2402 molecule. After neutralization, purified β2m was added to C1R-A24 cells, the obtained product was added to serial dilutions of a peptide, and incubated on ice for 4 hours. Staining was carried out using fluorescently labeled monoclonal antibody 17A12, which recognizes association (MHC-pep) of the three members, that is, HLA-A*2402 molecule, the peptide, and β2m, which had reassociated during the incubation.
Subsequently, the MHC-pep count per C1R-A24 cell (proportional to the strength of fluorescence of the above-mentioned fluorescent antibody) was quantitatively measured using an FACScan fluorescence-activated cell sorter (Becton Dickinson Biosciences). A binding dissociation constant Kd value between the HLA-A24 molecule and the peptide was calculated from the average strength of fluorescence per cell by a published method (Udaka et al., Immunogenetics, 51, 816-828, 2000).
as §1, §2, §3, §4

[3] = molecular target: T1, HLA-A24 molecule (product of the HLA-A*2402 gene) on C1R-A24 cells (human); assay: reassociation on acid-stripped C1R-A24 cells with added beta2m, mAb 17A12 staining, flow cytometry
T1 construct: MHC class I molecule on cells; Emptied by acid treatment (pH 3.3, 30 s), then reassociated with added purified beta2m and the test peptide; also called HLA-A*2402 molecule; human HLA-A24 molecule

[4] = molecular target: T2, HLA-A2 molecule (product of the HLA-A*0201 gene) on JY cells (human); assay: reassociation on acid-stripped JY cells with added beta2m, mAb BB7.2 staining, flow cytometry
T2 construct: MHC class I molecule on cells; Emptied by acid treatment (pH 3.8, 30 s), then reassociated with added purified beta2m and the test peptide; also called HLA-A*0201 molecule; human HLA-A2 molecule

Molecule: ALLLRTPYS [compound 38]
- Kd [1]: 4.69 µM

Molecule: ALLPAVPSL [compound 2]
- binding to a human HLA-A type molecule (in words) [2]: experimentally confirmed to bind

Molecule: ALLPAVPSL [compound 33]
- Kd [1]: 0.0143 µM

Molecule: DFKDCERRF [compound 1]
- binding to a human HLA-A type molecule (in words) [2]: experimentally confirmed to bind

Molecule: DVRDLNALL [compound 5]
- binding to a human HLA-A type molecule (in words) [2]: experimentally confirmed to bind

Molecule: GVFRGIQDV [compound 51]
- Kd [1]: 1.41 µM

Molecule: ILCGAQYRI [compound 14]
- binding to a human HLA-A type molecule (in words) [2]: experimentally confirmed to bind

Molecule: ILCGAQYRI [compound 40]
- Kd [1]: 7.51 µM

Molecule: NLGATLKGV [compound 31]
- Kd [1]: 8.17 µM

Molecule: NLYQMTSQL [compound 29]
- binding to a human HLA-A type molecule (in words) [2]: experimentally confirmed to bind

Molecule: NLYQMTSQL [compound 44]
- Kd [1]: 1.49 µM

Molecule: NMTKLQLAL [compound 10]
- binding to a human HLA-A type molecule (in words) [2]: experimentally confirmed to bind

Molecule: NMTKLQLAL [compound 49]
- Kd [1]: 3.71 µM

Molecule: PPPPPHSFI [compound 7]
- binding to a human HLA-A type molecule (in words) [2]: experimentally confirmed to bind

Molecule: PPPPPPHSF [compound 4]
- binding to a human HLA-A type molecule (in words) [2]: experimentally confirmed to bind

Molecule: QQYSVPPPV [compound 39]
- Kd [1]: 3.24 µM

Molecule: QYRIHTHGV [compound 30]
- binding to a human HLA-A type molecule (in words) [2]: experimentally confirmed to bind

Molecule: SFIKQEPSW [compound 6]
- binding to a human HLA-A type molecule (in words) [2]: experimentally confirmed to bind

Molecule: VAAGSSSSV [compound 43]
- Kd ([1]; −log Kd value (Kd in molar concentration), HLA-A2, JY cells, on ice 4 hours, read-out: BINDING EXPERIMENT DATA (converted)): 9.95 µM

Molecule: YRIHTHGVF [compound 3]
- binding to a human HLA-A type molecule (in words) [2]: experimentally confirmed to bind

B1: HLA-A24-binding peptide of SEQ ID NO 3 (WT1 peptide, SEQ NAME 286) (peptide)
peptide: YRIHTHGVF
- -log Kd [3]: 4.39 -log Kd (Kd in molar concentration)

B2: HLA-A24-binding peptide of SEQ ID NO 6 (WT1 peptide, SEQ NAME 70) (peptide)
peptide: SFIKQEPSW
- -log Kd [3]: 8.16 -log Kd (Kd in molar concentration)

B3: HLA-A24-binding peptide of SEQ ID NO 4 (WT1 peptide, SEQ NAME 63) (peptide)
peptide: PPPPPPHSF
- -log Kd [3]: 4.4 -log Kd (Kd in molar concentration)

B4: HLA-A2-binding peptide of SEQ ID NO 43 (WT1 peptide, SEQ NAME 250) (peptide)
peptide: VAAGSSSSV
- -log Kd [4]: 5 -log Kd (Kd in molar concentration)

B5: HLA-A2-binding peptide of SEQ ID NO 44 (WT1 peptide, SEQ NAME 225) (peptide)
peptide: NLYQMTSQL
- -log Kd [4]: 5.83 -log Kd (Kd in molar concentration)

B6: HLA-A2-binding peptide of SEQ ID NO 33 (WT1 peptide, SEQ NAME 10) (peptide)
peptide: ALLPAVPSL
- -log Kd [4]: 7.84 -log Kd (Kd in molar concentration)

B7: HLA-A2-binding peptide of SEQ ID NO 31 (WT1 peptide, SEQ NAME 242) (peptide)
peptide: NLGATLKGV
- -log Kd [4]: 5.09 -log Kd (Kd in molar concentration)

B8: HLA-A24-binding peptide of SEQ ID NO 5 (WT1 peptide, SEQ NAME 4) (peptide)
peptide: DVRDLNALL
- -log Kd [3]: 4.45 -log Kd (Kd in molar concentration)

B9: HLA-A24-binding peptide of SEQ ID NO 30 (WT1 peptide, SEQ NAME 285) (peptide)
peptide: QYRIHTHGV
- -log Kd [3]: 5.62 -log Kd (Kd in molar concentration)

B10: HLA-A2-binding peptide of SEQ ID NO 40 (WT1 peptide, SEQ NAME 280) (peptide)
peptide: ILCGAQYRI
notes: also called ILOGAQYRI
- -log Kd [4]: 5.12 -log Kd (Kd in molar concentration)

B11: HLA-A2-binding peptide of SEQ ID NO 51 (WT1 peptide, SEQ NAME 292) (peptide)
peptide: GVFRGIQDV
- -log Kd [4]: 5.85 -log Kd (Kd in molar concentration)

B12: HLA-A2-binding peptide of SEQ ID NO 38 (WT1 peptide, SEQ NAME 214) (peptide)
peptide: ALLLRTPYS
- -log Kd [4]: 5.33 -log Kd (Kd in molar concentration)

B13: HLA-A2-binding peptide of SEQ ID NO 39 (WT1 peptide, SEQ NAME 191) (peptide)
peptide: QQYSVPPPV
- -log Kd [4]: 5.49 -log Kd (Kd in molar concentration)

B14: HLA-A24-binding peptide of SEQ ID NO 14 (WT1 peptide, SEQ NAME 280) (peptide)
peptide: ILCGAQYRI
notes: also called ILOGAQYRI
- -log Kd [3]: 5.9 -log Kd (Kd in molar concentration)

B15: HLA-A24-binding peptide of SEQ ID NO 7 (WT1 peptide, SEQ NAME 64) (peptide)
peptide: PPPPPHSFI
- -log Kd [3]: 4.4 -log Kd (Kd in molar concentration)

B16: HLA-A24-binding peptide of SEQ ID NO 2 (WT1 peptide, SEQ NAME 10) (peptide)
peptide: ALLPAVPSL
- -log Kd [3]: 9.16 -log Kd (Kd in molar concentration)

B17: HLA-A2-binding peptide of SEQ ID NO 49 (WT1 peptide, SEQ NAME 441) (peptide)
peptide: NMTKLQLAL
notes: also called NMTKLQLAL
- -log Kd [4]: 5.43 -log Kd (Kd in molar concentration)

B18: HLA-A24-binding peptide of SEQ ID NO 1 (WT1 peptide, SEQ NAME 356) (peptide)
peptide: DFKDCERRF
notes: Synthesised by the Fmoc solid-phase method, purity 95% or higher
- -log Kd [3]: 4.4 -log Kd (Kd in molar concentration)

B19: HLA-A24-binding peptide of SEQ ID NO 29 (WT1 peptide, SEQ NAME 225) (peptide)
peptide: NLYQMTSQL
- -log Kd [3]: 4.38 -log Kd (Kd in molar concentration)

B20: HLA-A24-binding peptide of SEQ ID NO 10 (WT1 peptide, SEQ NAME 441) (peptide)
peptide: NMTKLQLAL
notes: also called NMTKLQLAL
- -log Kd [3]: 6.38 -log Kd (Kd in molar concentration)
